Test results published in PMC5002989 (Bioorganic & medicinal chemistry letters, 2016).
Read-outs that look alike come from different tables or passages of the source.

How the values were obtained:
hERG channel = hERG channel (Homo sapiens, UniProt Q12809); experiment: biochemical
VMAT2 = VMAT2 (Rattus norvegicus, UniProt Q01827); experiment: [3H]DA uptake at VMAT2 in rat striatal vesicle preparations; assay type: biochemical
[1] = Experimental water solubility, thermodynamic solubility method; assay type: physicochemical; conditions: for solubility: water, Experimentally determined water solubility of the hydrochloride salt

Sequence of hERG channel (Q12809 whole entry): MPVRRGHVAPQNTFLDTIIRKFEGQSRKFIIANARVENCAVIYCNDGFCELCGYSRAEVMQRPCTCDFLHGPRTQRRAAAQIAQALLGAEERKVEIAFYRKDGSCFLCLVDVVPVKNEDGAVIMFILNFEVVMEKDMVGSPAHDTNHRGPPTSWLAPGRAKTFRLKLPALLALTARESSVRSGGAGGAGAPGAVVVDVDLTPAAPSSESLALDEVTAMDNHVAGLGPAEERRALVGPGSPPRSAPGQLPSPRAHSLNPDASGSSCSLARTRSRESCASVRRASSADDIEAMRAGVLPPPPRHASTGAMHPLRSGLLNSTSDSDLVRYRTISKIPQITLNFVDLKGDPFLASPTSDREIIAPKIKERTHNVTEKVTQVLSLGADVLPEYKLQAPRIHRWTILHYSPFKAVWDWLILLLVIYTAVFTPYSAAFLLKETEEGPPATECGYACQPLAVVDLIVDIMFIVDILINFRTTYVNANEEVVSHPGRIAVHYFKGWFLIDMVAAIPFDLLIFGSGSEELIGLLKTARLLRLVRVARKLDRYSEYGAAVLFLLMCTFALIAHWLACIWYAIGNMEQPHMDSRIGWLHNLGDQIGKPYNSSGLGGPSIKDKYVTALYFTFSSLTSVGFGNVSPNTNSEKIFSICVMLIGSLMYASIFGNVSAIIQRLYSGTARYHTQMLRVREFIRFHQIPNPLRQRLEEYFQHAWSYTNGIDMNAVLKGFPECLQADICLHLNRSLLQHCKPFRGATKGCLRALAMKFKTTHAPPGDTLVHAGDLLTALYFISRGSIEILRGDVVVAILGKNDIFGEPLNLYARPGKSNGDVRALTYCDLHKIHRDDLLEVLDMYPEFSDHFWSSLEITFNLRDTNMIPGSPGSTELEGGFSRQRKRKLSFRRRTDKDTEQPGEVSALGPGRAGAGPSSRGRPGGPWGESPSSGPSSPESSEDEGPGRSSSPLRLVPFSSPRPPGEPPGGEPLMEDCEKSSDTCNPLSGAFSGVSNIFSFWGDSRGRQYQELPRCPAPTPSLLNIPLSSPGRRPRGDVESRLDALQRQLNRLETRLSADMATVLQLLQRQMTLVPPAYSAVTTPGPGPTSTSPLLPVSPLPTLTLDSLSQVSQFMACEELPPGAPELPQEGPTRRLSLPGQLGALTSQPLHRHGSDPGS
Sequence of VMAT2 (Q01827 whole entry): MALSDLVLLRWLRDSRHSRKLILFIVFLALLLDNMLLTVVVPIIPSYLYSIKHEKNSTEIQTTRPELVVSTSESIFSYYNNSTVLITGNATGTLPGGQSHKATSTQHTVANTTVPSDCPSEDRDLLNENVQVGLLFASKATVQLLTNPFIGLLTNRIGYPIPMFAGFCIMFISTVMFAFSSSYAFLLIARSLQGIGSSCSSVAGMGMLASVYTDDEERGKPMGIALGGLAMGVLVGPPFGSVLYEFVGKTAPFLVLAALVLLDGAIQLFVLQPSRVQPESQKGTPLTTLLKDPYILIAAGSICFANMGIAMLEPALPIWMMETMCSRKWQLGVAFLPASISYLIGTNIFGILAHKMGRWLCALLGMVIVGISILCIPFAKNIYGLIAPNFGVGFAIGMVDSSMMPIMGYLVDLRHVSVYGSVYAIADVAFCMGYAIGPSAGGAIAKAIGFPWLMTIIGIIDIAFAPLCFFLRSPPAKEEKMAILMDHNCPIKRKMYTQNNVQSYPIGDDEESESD

**Q.** Which Ki (hERG channel) does the source give for `CN1[C@@H](CCc2ccccc2)CCC[C@H]1CCc1ccccc1` [Lobelane (2), lobelane] here?
**A.** 238 ± 38.9 nM

**Q.** Which “[3H]DA uptake Ki in comparison to lobelane” value (VMAT2) does the source give for `Cl.Cl.Fc1ccc(CCN2CCN(CCc3ccc(F)cc3)CC2)cc1` [Compound 6f] here?
**A.** not different from lobelane

**Q.** Which results are given for `COc1ccccc1CCN1CCN(CCc2ccccc2OC)CC1.Cl.Cl` [Compound 6b]?
**A.** Experimentally determined water solubility of the hydrochloride salt ([1]; listed as C00014): 25.0 mg/mL; solubility [1]: 33.3 mg/mL

**Q.** For `COc1ccccc1CCN1CCN(CCc2ccccc2)CC1.Cl.Cl` [Compound 9a], which “Experimentally determined water solubility of the hydrochloride salt” value [1] is on record?
**A.** 13.5 mg/mL

**Q.** And the “Experimentally determined water solubility of the hydrochloride salt” value ([1]; listed as C00004)?
**A.** 33.3 mg/mL

**Q.** What does the source list for `Cl.Cl.Clc1ccccc1CCN1CCN(CCc2ccccc2Cl)CC1` [Compound 6e]?
**A.** Experimentally determined water solubility of the hydrochloride salt ([1]; listed as C00020): 13.5 mg/mL; solubility [1]: 25 mg/mL
